Assay results taken from patent US8993606B2, “Oral formulations for treating metal overload” (FerroKin BioSciences, Inc., priority 2011, dated 2015).
Read-outs that look alike come from different tables or passages of the source.

Key:
[1] = test system: patients with transfusional iron overload; assay: Example 11: efficacy study, serum ferritin; format: in vivo, human
Protocol: The goal of this experiment was to: 1. evaluate the safety and tolerability based on clinical assessments of two doses (16 and 32 mg/kg/d) of Compound 1 when administered daily for 24 weeks to patients with transfusional iron overload; 2. identify a differential response between dose groups in liver iron concentration determined by magnetic resonance imaging (MRI) after 24 weeks of dosing; and 3. assess the safety and efficacy activity of Compound 1 when administered daily for up to 96 weeks.
This experiment is an open-label, randomized study of two dose levels (16 and 32 mg/kg/d) of Compound 1 administered once daily for 24 weeks to eligible patients with transfusional iron overload requiring chelation therapy, with a dosing extension of 72 additional weeks.
Patients were assigned to one of two strate: “high” or “low” transfusion burden based on the average iron intake of the six transfusion sessions. Patients within each transfusion burden groups were randomized to one of two Compound 1 treatment arms: 16 mg/kg/d (16 mpk) or 32 mg/kg/d (32 mpk). The stratification followed by randomization to treatment arms helps to ensure an equal distribution of patients with “high” and “low” transfusion burdens to the high or low dose of Compound 1. Each treatment arm received one dose of Compound 1 daily for 24 weeks.
At the conclusion of the 24 week dosing period, patients who qualify and consent to continue treatment continued for an additional 72 weeks of Compound 1 dosing.
The inclusion of 25 patients in each treatment group provided a statistical power of 0.80 to detect, within 6 months, an LIC difference (normalized for initial LIC) of 3 mg/g dry weight between the two dose groups as determined by MRI. Baseline characteristics between dose groups were compared using Fisher extract test or Wilcoxon rank sum test as appropriate. The change in baseline to week 12, 24, and 72 values for all pharmacodynamics parameters were analyzed by an ANCOVA model with main effect for treatment group with baselines value for the corresponding parameters and transfusion burdon (iron input) during the study and baseline liver iron concentration as covariates comparing the two active treatment groups. T2* values were natural log transformed and summarized as the geometric mean (the antilog of the mean of the log data) plus or minus the co-efficient of variation (CV) defined as square root of eMSE where MSE is defined as the mean square error and subject to ANCOVA setting the p value as the threshold for statistical significance at 0.05 (confidence level of 95%).

[2] = Example 6: multiple-dose study in iron-overloaded human subjects (PK); format: in vivo; conditions: for half-life / Tmax / CL renal / Cmax / AUC(0-t) / Vd/F: both sexes, human, plasma; for AUC(0-t): read-out: AUC(0 - 24); for Vd/F: read-out: Vz/F
Excerpt: Example 6 was a multiple-dose, escalating study in iron-overloaded subjects conducted at 5 centers in the US, Australia, and Thailand.
Men and women at least 18 years of age qualified to participate if they were able to voluntarily give consent and had transfusional overload requiring treatment with an iron chelator and were willing to discontinue their chelation for a period of at least 5 days prior to screening and during the study for a total of up to 35 days. […] The mean of each subject's last 3 pre-transfusion hemoglobin levels (prior to screening) was ≧7.5 g/dL and their serum ferritin was >400 ng/mL. Subjects also agreed to use an approved method of contraception during the study.
The study enrolled 20 subjects with the following primary diagnoses requiring chronic transfusions:
• 2 β-thalassemia major • 2 sickle cell anemia Cohort 2 (8 mg/kg): • 1α-thalassemia major (α°/α°) • 2 β-thalassemia major • 1 congenital dyserythropoietic anemia Cohort 3 (16 mg/kg): • 4 β-thalassemia major Cohort 4 (32 mg/kg): • 1 α-thalassemia major)(α°/α° • 2 β-thalassemia/hemoglobin E • 1 sickle cell anemia Cohort 5 (40 mg/kg): • 2 β-thalassemia major • 2 β-thalassemia/hemoglobin E

[3] = 3 mg/kg/day, 7 days oral, N = 4
[4] = 8 mg/kg/day, 7 days oral, N = 4
[5] = 16 mg/kg/day, 7 days oral, N = 4
[6] = 32 mg/kg/day, 7 days oral, N = 2
[7] = 32 mg/kg/day, 7 days oral, N = 4
[8] = 40 mg/kg/day, 7 days oral, N = 4

## COCCOCCOCCOc1cccc(C2=N[C@@](C)(C(=O)O)CS2)c1O [Compound 1, (S)-4,5-Dihydro-2-[2-hydroxy-3-(3,6,9-trioxadecyloxy)phenyl]-4-methyl-4-thiazolecarboxylate magnesium hydroxide]
[1]; 16 mg/kg/d group
  Serum Ferritin Change from Baseline to Week 72, Geometric Mean: 1.14
  Serum Ferritin Change from Baseline to Week 72, Mean: 233.21
  Serum Ferritin Change from Baseline to Week 72, Median: 231.50
  Serum Ferritin Week 72, Geometric Mean: 2418.49
  Serum Ferritin Week 72, Mean: 2873.93
  Serum Ferritin Week 72, Median: 2544.50
[1]; 32 mg/kg/d group
  Serum Ferritin Change from Baseline to Week 72, Geometric Mean: 0.89
  Serum Ferritin Change from Baseline to Week 72, Mean: −150.82
  Serum Ferritin Change from Baseline to Week 72, Median: −436.00
  Serum Ferritin Week 72, Geometric Mean: 2441.03
  Serum Ferritin Week 72, Mean: 3026.82
  Serum Ferritin Week 72, Median: 2396.00
[1]; Total
  Serum Ferritin Change from Baseline to Week 72, Geometric Mean: 0.99
  Serum Ferritin Change from Baseline to Week 72, Mean: 22.61
  Serum Ferritin Change from Baseline to Week 72, Median: −56.00
  Serum Ferritin Week 72, Geometric Mean: 2430.83
  Serum Ferritin Week 72, Mean: 2957.77
  Serum Ferritin Week 72, Median: 2398.00
[2]; [3]
  CL/F: 162 ± 85.0 mL/min
  Fe(0-24): 44.0 ± 16.0 % oral dose
  Ue(0-24): 66.1 ± 24.0 mg
  λz: 0.0655 ± 0.0606 h⁻¹
  CL renal: 75.2 ± 46.8 mL/min
  Cmax: 5910 ± 2300 ng/mL
  AUC(0-t): 19500 ± 11300 ng·h/mL
  Vd/F: 185 ± 84.1 L
[2]; [4]
  CL/F: 225 ± 142 mL/min
  Fe(0-24): 47.2 ± 13.8 % oral dose
  Ue(0-24): 201 ± 68.1 mg
  λz: 0.0424 ± 0.0249 h⁻¹
  CL renal: 105 ± 62.9 mL/min
  Cmax: 15000 ± 4440 ng/mL
  AUC(0-t): 44900 ± 30800 ng·h/mL
  Vd/F: 311 ± 137 L
[2]; [5]
  CL/F: 206 ± 78.4 mL/min
  Fe(0-24): 39.2 ± 5.86 % oral dose
  Ue(0-24): 402 ± 103 mg
  λz: 0.0421 ± 0.0246 h⁻¹
  CL renal: 83.2 ± 3600 mL/min
  Cmax: 38200 ± 3950 ng/mL
  AUC(0-t): 92300 ± 36600 ng·h/mL
  Vd/F: 339 ± 166 L
[2]; [6]
  λz: 0.0381 ± 0.0091^a hr^−1
  Vd/F: 214 L
[2]; [7]
  CL/F: 172 ± 60.1 mL/min
  Fe(0-24): 43.1 ± 15.8 % oral dose
  Ue(0-24): 641 ± 208 mg
  CL renal: 73.6 ± 37.8 mL/min
  Cmax: 68200 ± 27500 ng/mL
  AUC(0-t): 158000 ± 43500 ng·h/mL
[2]; [8]
  CL/F: 223 ± 23.6 mL/min
  Fe(0-24): 48.4 ± 14.0 % oral dose
  Ue(0-24): 905 ± 247 mg
  λz: 0.0544 ± 0.0071 h⁻¹
  CL renal: 107 ± 26.2 mL/min
  Cmax: 68600 ± 11000 ng/mL
  AUC(0-t): 141000 ± 8070 ng·h/mL
  Vd/F: 249 ± 40.4 L
[2]; after 7 days of daily dosing
  time of maximum plasma concentrations, mean: 1.24 h
[2]; after 7 days of daily dosing, 3-40 mg/kg/day
  time of maximum plasma concentrations, range: 1.0 to 1.49 h
[2]; oral, across 5 cohorts, read-out: mean t1/2, range
  half-life: 12.9 to 21.3 h
[2]; oral, across 5 cohorts, read-out: median values for tmax, range
  Tmax: 1 to 1.49 h
[2]; 3 mg/kg/day, 7 days oral, N = 4, read-out: T1/2 (converted)
  half-life: 16.2 ± 8.32 h
[2]; 3 mg/kg/day, 7 days oral, median, read-out: tmax
  Tmax: 1.31 h
[2]; 8 mg/kg/day, 7 days oral, N = 4, read-out: T1/2 (converted)
  half-life: 20.9 ± 11.3 h
[2]; 8 mg/kg/day, 7 days oral, median, read-out: tmax
  Tmax: 1.18 h
[2]; 16 mg/kg/day, 7 days oral, N = 4, read-out: T1/2 (converted)
  half-life: 21.3 ± 11.8 h
[2]; 16 mg/kg/day, 7 days oral, median, read-out: tmax
  Tmax: 1 h
[2]; 32 mg/kg/day, 7 days oral, N = 2, read-out: T1/2 (converted)
  half-life: 18.7 h
[2]; 32 mg/kg/day, 7 days oral, median, read-out: tmax
  Tmax: 1.49 h
[2]; 40 mg/kg/day, 7 days oral, N = 4, read-out: T1/2 (converted)
  half-life: 12.9 ± 1.68 h
[2]; 40 mg/kg/day, 7 days oral, median, read-out: tmax
  Tmax: 1.26 h
